The results in this text go back to PubChem BioAssay AID504481 (NMMLSC, 2011).

Active and inactive are the calls of the source.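 Rule for the calls: active = fold change below 0.65 in a panel strain, matching the primary screen cutoff; inactive = the rest.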

The test system of one assay is YBR084C-A. In words: GFP reporter expression in transducer deletion yeast, mechanism study for yeast TOR pathway modulator project, S. cerevisiae, transducer mutant strains, GFP-tagged proteins (AID 504481).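 Note: 1 = DMSO wells as ratio of mean channel GFP fluorescence.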 Particulars: S. cerevisiae transducer mutants, GFP-fusion expression, flow cytometry, 3 h. A general note: In flow cytometry, cells or beads pass a laser one at a time.
For `O=[N+]([O-])c1ccc(S(=O)(=O)c2cccc(C(F)(F)F)c2)nc1`, the fold change is 0.793 (inactive).
Same read-out and setting: under `CCSc1nnc(NC(=O)c2ccccn2)s1` stands 0.968 (inactive); under `O=C(OCn1ncc(Br)c(Br)c1=O)c1c(F)cccc1F`, 0.936 (inactive); under `Cc1ccc(S(=O)(=O)c2ncccc2[N+](=O)[O-])cc1`, 0.924 (inactive).
On the same count and under the same terms, the value for `O=[N+]([O-])c1cc(O)c2ncccc2c1` was 0.972 (inactive).
Still for that read-out and setting: the value for `CCc1ccc(OCC(=O)NNC(=S)NC(=O)C2CC2)c(Br)c1` was 1.09 (inactive).
On to `O=C1ON=C(c2ccccc2)/C1=C/c1ccco1`, for which the fold change is 1.02 (inactive).
On the same count and under the same terms, under `Clc1ccc(N=c2ssnc2Cl)cc1` stands 0.99 (inactive); under `CC(C)(C)C(=O)NC(=S)NNC(=O)c1ccc(-c2ccccc2)cc1`, 1.19 (inactive).
Same read-out and setting: under `Cn1ncc(S(=O)(=O)Cc2ccccc2)c(Cl)c1=O` stands 0.743 (inactive); under `COc1ccc([N+](=O)[O-])c(S(=O)(=O)c2ccccc2)n1`, 0.944 (inactive).
Same read-out and setting: under `CCOC(=O)c1c(C)oc2c1c(C(c1cccnc1)N1CCOCC1)c(O)c1ccccc12` (stereo not drawn) stands 0.759 (inactive).
As to `Cc1ccc(C(=O)NNC(=S)NC(=O)COc2ccccc2)cc1`, the fold change is 1.19 (inactive).
Same read-out and setting: the value for `CC(=O)c1ccc(N2CCN(C(=O)c3ccc(Br)cc3)CC2)c(F)c1` was 1.27 (inactive); that for `Cc1ccc(/C=C2/C(=O)ON=C2c2ccccc2)o1` was 0.942 (inactive).
For the compound `COc1ccc([N+](=O)[O-])c(S(=O)(=O)c2ccc(Cl)cc2)n1`, the fold change is 0.841 (inactive).
Still for that read-out and setting: under `O=C(Oc1c(Cl)cc(Cl)c2cccnc12)c1cccc([N+](=O)[O-])c1` stands 1.18 (inactive); under `CCCCC(=O)NNC(=S)NC(=O)c1ccc(C)cc1`, 1.27 (inactive).
Same read-out and setting: under `O=[N+]([O-])c1cc(Cl)c2cccnc2c1O` stands 1.05 (inactive).
The same measure, in the same setting: under `CC(Oc1ccc(Cl)cc1)C(=O)NNC(=S)NC(=O)c1ccco1` (stereo not drawn) stands 1.09 (inactive); under `O=C(CCc1ccccc1)NNC(=S)NC(=O)c1ccccc1`, 1.22 (inactive).

For another assay, the system named is BY4741. The assay is described as above. Particulars: S. cerevisiae transducer mutants, GFP-fusion expression, flow cytometry, 3 h.
For the compound `O=[N+]([O-])c1ccc(S(=O)(=O)c2cccc(C(F)(F)F)c2)nc1`, the fold change is 1.08 (inactive).
Turning to `CCSc1nnc(NC(=O)c2ccccn2)s1`, the fold change was 0.946 (inactive).
Same read-out and setting: the value for `O=C(OCn1ncc(Br)c(Br)c1=O)c1c(F)cccc1F` was 0.865 (inactive); that for `Cc1ccc(S(=O)(=O)c2ncccc2[N+](=O)[O-])cc1` was 1 (inactive).
Still for that read-out and setting: the value for `O=[N+]([O-])c1cc(O)c2ncccc2c1` was 0.838 (inactive).
Turning to `CCc1ccc(OCC(=O)NNC(=S)NC(=O)C2CC2)c(Br)c1`, the fold change was 1.54 (inactive).
Take `O=C1ON=C(c2ccccc2)/C1=C/c1ccco1`: the fold change was 1.32 (inactive).
Still for that read-out and setting: under `Clc1ccc(N=c2ssnc2Cl)cc1` stands 1.08 (inactive); under `CC(C)(C)C(=O)NC(=S)NNC(=O)c1ccc(-c2ccccc2)cc1`, 1.48 (inactive).
Same read-out and setting: under `Cn1ncc(S(=O)(=O)Cc2ccccc2)c(Cl)c1=O` stands 1.33 (inactive).
The same measure, in the same setting: the value for `COc1ccc([N+](=O)[O-])c(S(=O)(=O)c2ccccc2)n1` was 0.935 (inactive); that for `CCOC(=O)c1c(C)oc2c1c(C(c1cccnc1)N1CCOCC1)c(O)c1ccccc12` (stereo not drawn) was 1.18 (inactive).
In the case of `Cc1ccc(C(=O)NNC(=S)NC(=O)COc2ccccc2)cc1`, the fold change is 1.28 (inactive).
The same measure, in the same setting: under `CC(=O)c1ccc(N2CCN(C(=O)c3ccc(Br)cc3)CC2)c(F)c1` stands 1.31 (inactive).
As to `Cc1ccc(/C=C2/C(=O)ON=C2c2ccccc2)o1`, the fold change is 1.42 (inactive).
Same read-out and setting: under `COc1ccc([N+](=O)[O-])c(S(=O)(=O)c2ccc(Cl)cc2)n1` stands 1.1 (inactive).
On the same count and under the same terms, the value for `O=C(Oc1c(Cl)cc(Cl)c2cccnc12)c1cccc([N+](=O)[O-])c1` was 0.946 (inactive); that for `CCCCC(=O)NNC(=S)NC(=O)c1ccc(C)cc1` was 1.66 (inactive); that for `O=[N+]([O-])c1cc(Cl)c2cccnc2c1O` was 0.935 (inactive).
Consider `CC(Oc1ccc(Cl)cc1)C(=O)NNC(=S)NC(=O)c1ccco1` (stereo not drawn), for which the fold change was 1.49 (inactive).
On the same count and under the same terms, the value for `O=C(CCc1ccccc1)NNC(=S)NC(=O)c1ccccc1` was 1.64 (inactive).

The next assay has as its system YKL103C. Described as above. As to conditions: S. cerevisiae transducer mutants, GFP-fusion expression, flow cytometry, 3 h.
Regarding `O=[N+]([O-])c1ccc(S(=O)(=O)c2cccc(C(F)(F)F)c2)nc1`, the fold change was 1.49 (inactive).
The same measure, in the same setting: under `CCSc1nnc(NC(=O)c2ccccn2)s1` stands 1.13 (inactive).
Take `O=C(OCn1ncc(Br)c(Br)c1=O)c1c(F)cccc1F`: the fold change was 1.31 (inactive).
The same measure, in the same setting: under `Cc1ccc(S(=O)(=O)c2ncccc2[N+](=O)[O-])cc1` stands 1.33 (inactive); under `O=[N+]([O-])c1cc(O)c2ncccc2c1`, 1.13 (inactive); under `CCc1ccc(OCC(=O)NNC(=S)NC(=O)C2CC2)c(Br)c1`, 2.4.
On the same count and under the same terms, the value for `O=C1ON=C(c2ccccc2)/C1=C/c1ccco1` was 1.37 (inactive); that for `Clc1ccc(N=c2ssnc2Cl)cc1` was 1.45 (inactive).
Same read-out and setting: under `CC(C)(C)C(=O)NC(=S)NNC(=O)c1ccc(-c2ccccc2)cc1` stands 2.06.
For `Cn1ncc(S(=O)(=O)Cc2ccccc2)c(Cl)c1=O`, the fold change is 1.83.
On the same count and under the same terms, the value for `COc1ccc([N+](=O)[O-])c(S(=O)(=O)c2ccccc2)n1` was 1.86.
On the same count and under the same terms, the value for `CCOC(=O)c1c(C)oc2c1c(C(c1cccnc1)N1CCOCC1)c(O)c1ccccc12` (stereo not drawn) was 1.36 (inactive).
On the same count and under the same terms, the value for `Cc1ccc(C(=O)NNC(=S)NC(=O)COc2ccccc2)cc1` was 1.93; that for `CC(=O)c1ccc(N2CCN(C(=O)c3ccc(Br)cc3)CC2)c(F)c1` was 1.69; that for `Cc1ccc(/C=C2/C(=O)ON=C2c2ccccc2)o1` was 1.61.
For `COc1ccc([N+](=O)[O-])c(S(=O)(=O)c2ccc(Cl)cc2)n1`, the fold change was 2.87.
On the same count and under the same terms, the value for `O=C(Oc1c(Cl)cc(Cl)c2cccnc12)c1cccc([N+](=O)[O-])c1` was 1.56; that for `CCCCC(=O)NNC(=S)NC(=O)c1ccc(C)cc1` was 2.75; that for `O=[N+]([O-])c1cc(Cl)c2cccnc2c1O` was 1.43 (inactive).
For `CC(Oc1ccc(Cl)cc1)C(=O)NNC(=S)NC(=O)c1ccco1` (stereo not drawn), the fold change was 2.14.
On the same count and under the same terms, the value for `O=C(CCc1ccccc1)NNC(=S)NC(=O)c1ccccc1` was 2.56.
